Calls of active or inactive are those of the source. The calls are words filed in the database; no cut-off is given here.

Drawing on ChEMBL document CHEMBL1156505, “Allosteric transinhibition by specific antagonists in CCR2/CXCR4 heterodimers” (J Biol Chem, 2007), this text covers inhibition, IC50 and Activity for two compounds.

The target in assay [1] is T1, C-C chemokine receptor type 2 (Homo sapiens, UniProt P41597). Nature of the assay: Displacement of [125I]SDF1alpha from CCR2/CXCR4 expressed in CHOK1 cells. In kind it is cell-based. As to conditions: CHO-K1; concentration not given here. A general note: In a radioligand displacement assay an active substance lowers the binding of a labelled ligand.
Target sequence in this assay (P41597 whole entry, looked up): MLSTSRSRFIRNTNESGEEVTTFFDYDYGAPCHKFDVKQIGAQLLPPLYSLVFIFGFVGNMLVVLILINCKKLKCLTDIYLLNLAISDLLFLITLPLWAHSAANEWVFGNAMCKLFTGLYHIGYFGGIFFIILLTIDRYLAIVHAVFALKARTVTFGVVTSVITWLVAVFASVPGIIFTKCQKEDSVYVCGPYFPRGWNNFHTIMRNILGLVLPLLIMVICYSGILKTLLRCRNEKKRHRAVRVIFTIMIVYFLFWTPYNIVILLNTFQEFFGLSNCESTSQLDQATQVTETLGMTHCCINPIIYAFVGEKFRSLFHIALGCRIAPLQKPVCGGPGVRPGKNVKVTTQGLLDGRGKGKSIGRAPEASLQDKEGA
Assay [2] has as its target T1, C-C chemokine receptor type 2. Nature of the assay: Displacement of [125I]MCP1 from CCR2/CXCR4 expressed in CHOK1 cells. In kind it is cell-based. To be noted: CHO-K1; concentration not given here.
Target sequence in this assay (P41597 whole entry, looked up): as above
For assay [3] the target is unchanged. Nature of the assay: biochemical.
Target sequence in this assay (P41597 whole entry): as the sequence (P41597 whole entry, looked up) above
Description: Displacement of [125I]MCP1 from CCR2 expressed in CHOK1 cells
The species named for the next assay is Homo sapiens. Nature of the assay: Inhibition of migration of human CD4+ lymphoblasts towards MCP1 by chemotaxis assay. In kind it is functional.

What is called inhibition is the share of the control response that was lost under treatment. As to `c1cc(CN2CCCNCCNCCCNCC2)ccc1CN1CCCNCCNCCCNCC1`, the results for the inhibition in assay [1] and in assay [2] were 87.1% and 36.2%, respectively.

Broadly, the IC50 is the concentration at which inhibition is half-maximal. A higher IC50 goes with weaker potency in that assay. Turning to `Cc1ccc(-c2ccc3c(c2)C=C(C(=O)Nc2ccc(C[N+](C)(C)C4CCOCC4)cc2)CCC3)cc1`, in assay [3], the IC50 stood at 0.25 nM. The inhibition in assay [1] was determined as 38.1%; in assay [2], 90.7%. In addition, the outcome in the assay listed under Homo sapiens was Active.
